In PubChem BioAssay AID248 (DTP/NCI, 2004):
“And” between values parts separate entries of the source, which are not always exact repeats. Equal entries are not always repeated. Toxic doses and inconclusive results are not listed. Rule as the data show it: active = T/C of 150% or more; inactive = T/C below 125%. Numbered stars: 1 amine (or outer) side, 2 acyl side, 3 side chain; on linkers, the order of the positions; unused ones are H or OH. Bridge positions count the residues as written; N and C are the ends. Square brackets hold non-standard residues; d marks the D form. Peptide text beside a SMILES is read from it. I, II: the chains in the order shown. Actinocin(9to1) = Cc1c2oc3c(C)ccc(C(=O)[*:1])c3nc-2c(C(=O)[*:2])c(N)c1=O; aThr = C[C@H](O)[C@H](N)C(=O)O; NMeV = CN[C@H](C(=O)O)C(C)C; Sar = CNCC(=O)O

Test system: L1210 leukemia ip in BDF1 mice, survival T/C
Test: NCI In Vivo Anticancer Drug Screen. Data for tumor model L1210 Leukemia (intraperitoneal) in B6D2F1 (BDF1) mice
Details: higher = longer survival
How it was run: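 Survival endpoint. Drug-treated group vs vehicle group, expressed as T divided by C. Tumor passaged by transplantation.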

Measured: T/C

Cc1c2oc3c(C)ccc(C(=O)N[C@@H]4C(=O)N[C@H](C(C)C)C(=O)N5CCC[C@H]5C(=O)N(C)CC(=O)N(C)[C@@H](C(C)C)C(=O)O[C@H]4C)c3nc-2c(C(=O)N[C@@H]2C(=O)N[C@H](C(C)C)C(=O)N3CCC[C@H]3C(=O)N(C)CC(=O)N(C)[C@@H](C(C)C)C(=O)O[C@H]2C)c(N)c1=O (I: [aThr][dV]P[Sar][NMeV] / II: [aThr][dV]P[Sar][NMeV]; ester I:1-I:C, II:1-II:C; linker I:N-II:N via Actinocin(9to1))
inactive: endpoint: mean survival time, dose: 0.02 mg/kg/injection, schedule: Q04DX003 (ip), vehicle: water 102 % of control and 105 % of control | endpoint: mean survival time, dose: 0.03 mg/kg/injection, schedule: Q01DX009 (ip), vehicle: saline 111 % of control | endpoint: mean survival time, dose: 0.03 mg/kg/injection, schedule: Q04DX003 (ip), vehicle: water 105 % of control and 110 % of control | endpoint: mean survival time, dose: 0.05 mg/kg/injection, schedule: Q01DX009 (ip), vehicle: saline 111 % of control | endpoint: mean survival time, dose: 0.05 mg/kg/injection, schedule: Q04DX003 (ip), vehicle: other 103 % of control | endpoint: mean survival time, dose: 0.1 mg/kg/injection, schedule: Q01DX009 (ip), vehicle: saline + alcohol 103 % of control | endpoint: mean survival time, dose: 0.11 mg/kg/injection, schedule: Q01DX001 (ip), vehicle: saline 108 % of control | endpoint: mean survival time, dose: 0.12 mg/kg/injection, schedule: Q01DX Z (ip), vehicle: carboxymethylcellulose (CMC) 102 % of control | endpoint: mean survival time, dose: 0.13 mg/kg/injection, schedule: Q01DX009 (ip), vehicle: saline 103 % of control | endpoint: mean survival time, dose: 0.15 mg/kg/injection, schedule: Q02DX010 (ip), vehicle: carboxymethylcellulose (CMC) 104 % of control | endpoint: mean survival time, dose: 0.16 mg/kg/injection, schedule: Q01DX Z (ip), vehicle: carboxymethylcellulose (CMC) 94 % of control | endpoint: mean survival time, dose: 0.16 mg/kg/injection, schedule: Q## X032 (ip), vehicle: saline 107 % of control | endpoint: mean survival time, dose: 0.2 mg/kg/injection, schedule: Q01DX009 (ip), vehicle: saline 109 % of control | endpoint: mean survival time, dose: 0.22 mg/kg/injection, schedule: Q02DX010 (ip), vehicle: other 100 % of control | endpoint: mean survival time, dose: 0.23 mg/kg/injection, schedule: Q02DX010 (ip), vehicle: carboxymethylcellulose (CMC) 92 % of control | endpoint: mean survival time, dose: 0.24 mg/kg/injection, schedule: Q## X032 (ip), vehicle: saline 109 % of control | endpoint: mean survival time, dose: 0.3 mg/kg/injection, schedule: Q## X032 (ip), vehicle: saline 110 % of control | endpoint: mean survival time, dose: 1.0 mg/kg/injection, schedule: Q## X004 (ip), vehicle: saline 101 % of control | endpoint: mean survival time, dose: 0.7 micrograms/kg/injection, schedule: Q01DX009 (ip), vehicle: saline 100 % of control and 104 % of control | endpoint: mean survival time, dose: 0.8 micrograms/kg/injection, schedule: Q01DX Z (ip), vehicle: saline 104 % of control | endpoint: mean survival time, dose: 1.5 micrograms/kg/injection, schedule: Q01DX009 (ip), vehicle: saline 97 % of control and 104 % of control | endpoint: mean survival time, dose: 3.0 micrograms/kg/injection, schedule: Q01DX009 (ip), vehicle: saline 102 % of control and 104 % of control | endpoint: mean survival time, dose: 3.1 micrograms/kg/injection, schedule: Q01DX001 (ip), vehicle: saline 100 % of control | endpoint: mean survival time, dose: 3.2 micrograms/kg/injection, schedule: Q01DX Z (ip), vehicle: saline 107 % of control | endpoint: mean survival time, dose: 3.5 micrograms/kg/injection, schedule: Q01DX009 (ip), vehicle: saline 97 % of control | endpoint: mean survival time, dose: 3.5 micrograms/kg/injection, schedule: Q01DX Z (ip), vehicle: carboxymethylcellulose (CMC) 109 % of control | endpoint: mean survival time, dose: 4.0 micrograms/kg/injection, schedule: Q01DX009 (ip), vehicle: water 103 % of control and 106 % of control | endpoint: mean survival time, dose: 5.4 micrograms/kg/injection, schedule: Q01DX Z (ip), vehicle: carboxymethylcellulose (CMC) 111 % of control | endpoint: mean survival time, dose: 6.3 micrograms/kg/injection, schedule: Q01DX001 (ip), vehicle: saline 107 % of control | endpoint: mean survival time, dose: 12.0 micrograms/kg/injection, schedule: Q01DX006 (iv), vehicle: other 103 % of control | endpoint: mean survival time, dose: 12.0 micrograms/kg/injection, schedule: Q01DX Z (im), vehicle: other 103 % of control | endpoint: mean survival time, dose: 12.0 micrograms/kg/injection, schedule: Q01DX Z (sc), vehicle: other 105 % of control | endpoint: mean survival time, dose: 12.5 micrograms/kg/injection, schedule: Q01DX001 (ip), vehicle: saline 101 % of control | endpoint: mean survival time, dose: 12.5 micrograms/kg/injection, schedule: Q01DX009 (ip), vehicle: water 103 % of control | endpoint: mean survival time, dose: 17.0 micrograms/kg/injection, schedule: Q04DX002 (ip), vehicle: saline 97 % of control and 100 % of control | endpoint: mean survival time, dose: 20.0 micrograms/kg/injection, schedule: Q01DX015 (ip), vehicle: saline 108 % of control | endpoint: mean survival time, dose: 25.0 micrograms/kg/injection, schedule: Q01DX001 (ip), vehicle: saline 111 % of control | endpoint: mean survival time, dose: 25.0 micrograms/kg/injection, schedule: Q01DX009 (ip), vehicle: water 106 % of control | endpoint: mean survival time, dose: 25.0 micrograms/kg/injection, schedule: Q01DX Z (sc), vehicle: other 103 % of control | endpoint: mean survival time, dose: 35.0 micrograms/kg/injection, schedule: Q04DX002 (ip), vehicle: saline 103 % of control and 106 % of control | endpoint: mean survival time, dose: 40.0 micrograms/kg/injection, schedule: Q01DX Z (ip), vehicle: carboxymethylcellulose (CMC) 110 % of control | endpoint: mean survival time, dose: 50.0 micrograms/kg/injection, schedule: Q01DX001 (ip), vehicle: saline 109 % of control | endpoint: mean survival time, dose: 50.0 micrograms/kg/injection, schedule: Q01DX009 (ip), vehicle: water 105 % of control | endpoint: mean survival time, dose: 50.0 micrograms/kg/injection, schedule: Q01DX Z (oral), vehicle: other 111 % of control | endpoint: mean survival time, dose: 60.0 micrograms/kg/injection, schedule: Q01DX Z (ip), vehicle: carboxymethylcellulose (CMC) 100 % of control | endpoint: mean survival time, dose: 64.0 micrograms/kg/injection, schedule: Q01DX001 (ip), vehicle: clinical formulation 107 % of control | endpoint: mean survival time, dose: 64.0 micrograms/kg/injection, schedule: Q01DX001 (ip), vehicle: saline 104 % of control | endpoint: mean survival time, dose: 64.0 micrograms/kg/injection, schedule: Q01DX009 (ip), vehicle: clinical formulation 103 % of control | endpoint: mean survival time, dose: 70.0 micrograms/kg/injection, schedule: Q04DX002 (ip), vehicle: saline 109 % of control | endpoint: mean survival time, dose: 100.0 micrograms/kg/injection, schedule: Q01DX001 (ip), vehicle: saline 109 % of control | endpoint: mean survival time, dose: 100.0 micrograms/kg/injection, schedule: Q01DX009 (ip), vehicle: saline + alcohol 103 % of control | endpoint: mean survival time, dose: 100.0 micrograms/kg/injection, schedule: Q01DX Z (ip), vehicle: other 101 % of control | endpoint: mean survival time, dose: 100.0 micrograms/kg/injection, schedule: Q01DX Z (oral), vehicle: other 107 % of control | endpoint: mean survival time, dose: 128.0 micrograms/kg/injection, schedule: Q01DX001 (ip), vehicle: clinical formulation 109 % of control | endpoint: mean survival time, dose: 128.0 micrograms/kg/injection, schedule: Q01DX001 (ip), vehicle: saline 109 % of control | endpoint: mean survival time, dose: 140.0 micrograms/kg/injection, schedule: Q04DX002 (ip), vehicle: saline 93 % of control and 102 % of control | endpoint: mean survival time, dose: 280.0 micrograms/kg/injection, schedule: Q04DX002 (ip), vehicle: saline 106 % of control | endpoint: mean survival time, dose: 512.0 micrograms/kg/injection, schedule: Q04DX003 (ip), vehicle: water 100 % of control | endpoint: mean survival time, dose: 570.0 micrograms/kg/injection, schedule: Q04DX002 (ip), vehicle: saline 100 % of control | endpoint: median survival time, dose: 0.01 mg/kg/injection, schedule: Q01DX009 (ip), vehicle: water 107 % of control | endpoint: median survival time, dose: 0.02 mg/kg/injection, schedule: Q01DX009 (ip), vehicle: water 109 % of control (2×) and 110 % of control | endpoint: median survival time, dose: 0.03 mg/kg/injection, schedule: Q04DX003 (ip), vehicle: water 100 % of control | endpoint: median survival time, dose: 0.05 mg/kg/injection, schedule: Q01DX001 (ip), vehicle: saline 98 % of control | endpoint: median survival time, dose: 0.05 mg/kg/injection, schedule: Q01DX002 (ip), vehicle: saline 111 % of control | endpoint: median survival time, dose: 0.06 mg/kg/injection, schedule: Q01DX001 (ip), vehicle: water 100 % of control | endpoint: median survival time, dose: 0.06 mg/kg/injection, schedule: Q04DX003 (ip), vehicle: water 107 % of control | endpoint: median survival time, dose: 0.06 mg/kg/injection, schedule: Q08DX002 (ip), vehicle: water 94 % of control | endpoint: median survival time, dose: 0.08 mg/kg/injection, schedule: Q01DX009 (ip), vehicle: water 108 % of control | endpoint: median survival time, dose: 0.1 mg/kg/injection, schedule: Q01DX001 (ip), vehicle: saline 102 % of control | endpoint: median survival time, dose: 0.12 mg/kg/injection, schedule: Q01DX001 (ip), vehicle: water 111 % of control | endpoint: median survival time, dose: 0.12 mg/kg/injection, schedule: Q08DX002 (ip), vehicle: water 105 % of control | endpoint: median survival time, dose: 0.2 mg/kg/injection, schedule: Q01DX001 (ip), vehicle: saline 109 % of control | endpoint: median survival time, dose: 0.4 mg/kg/injection, schedule: Q01DX001 (ip), vehicle: saline 111 % of control | endpoint: median survival time, dose: 0.5 mg/kg/injection, schedule: Q04DX003 (ip), vehicle: water 96 % of control | endpoint: median survival time, dose: 4.0 micrograms/kg/injection, schedule: Q03HX016 (ip), vehicle: water 94 % of control | endpoint: median survival time, dose: 8.0 micrograms/kg/injection, schedule: Q03HX008 (ip), vehicle: water 100 % of control | endpoint: median survival time, dose: 8.0 micrograms/kg/injection, schedule: Q03HX016 (ip), vehicle: water 111 % of control | endpoint: median survival time, dose: 16.0 micrograms/kg/injection, schedule: Q03HX008 (ip), vehicle: water 111 % of control | endpoint: median survival time, dose: 16.0 micrograms/kg/injection, schedule: Q03HX016 (ip), vehicle: water 100 % of control | endpoint: median survival time, dose: 31.0 micrograms/kg/injection, schedule: Q03HX016 (ip), vehicle: water 100 % of control | endpoint: median survival time, dose: 200.0 micrograms/kg/injection, schedule: Q01DX009 (ip), vehicle: saline 93 % of control
